Where a name gives a salt, the structure may show the parent alone. Marks after values point to notes of the source that are not given here.
These compounds were tested on DSS-induced enteritis model (assay: Efficacy evaluation in DSS-induced enteritis model). Settings: 10 mg/kg oral, mice, 5% DSS; relative to non-treatment group = 100%; mean ± standard error.
Format: in vivo, female CBA mice
Text: Efficacy evaluation in DSS-induced enteritis model
The dextran sodium sulfate (DSS)-induced enteritis model was subjected to evaluation by a partly-modified methods of Gastroenterology, 98, 694-702 (1990) and Cytokine, 11, 890-896 (1998). A 5 (w/v) % DSS (manufactured by Sigma, MW 5,000) solution was freely taken by female CBA mice (CHARLES RIVER LABORATORIES JAPAN, INC.) for a given period to induce enteritis. A solution of the test compound adjusted to the objective concentration with a 0.5 (w/v) % tragacanth gum (TG) solution was orally administered at 5 mL/kg. Upon autopsy, the length, weight and the like of the large intestine were evaluated and used as an index of the onset of inflammatory enteritis. As a control, a mouse, to which a 0.5 (w/v) % TG solution was orally administered at 5 mL/kg instead of the test compound, was used. The length and weight of the large intestine are expressed as the relative value when the average value of the non-treatment group is 100%. As a Reference Example, the values obtained by oral administration of a positive control drug, salazosulfapyridine, instead of the test compound are shown. […] For testing the significant difference, Dunnett's t-test was used, and statistic significance as shown by P<0.05 and P<0.01 relative to the TG control group is shown in the Table with * and **, respectively.

Structure (SMILES) | large intestine length (%) | large intestine weight (%)
CC(C)[C@H](CNC(=O)Cc1ccccn1)Nc1ccc(C(F)(F)F)cc1 [Compound A-8] | 80.4 ± 1.8** % | 130.5 ± 5.28** %

Same assay, conditions: 200 mg/kg oral, mice, 5% DSS; relative to non-treatment group = 100%; mean ± standard error

Structure (SMILES) | large intestine length (%) | large intestine weight (%)
O=C(O)c1cc(/N=N/c2ccc(S(=O)(=O)Nc3ccccn3)cc2)ccc1O [salazosulfapyridine, reference compound] | 78.1 ± 1.5* % | 123.0 ± 1.9** %

These compounds were tested on acetic acid writhing model (assay: Efficacy evaluation in acetic acid writhing model). Settings: 3 mg/kg oral, mice, writhing number 5 to 20 min after 0.9% acetic acid i.p.; mean ± standard error.
Format: in vivo, male ICR mice
Experimental: Efficacy evaluation in acetic acid writhing model
The acetic acid writhing model was subjected to evaluation according to the method of European Journal of Pharmacology, 352, 47-52 (1998). To be specific, a solution of the test compound adjusted to the objective concentration with a 0.5 (w/v) % tragacanth gum solution was orally administered to male ICR mice (CHARLES RIVER LABORATORIES JAPAN, INC.) at 5 mL/kg, and a 0.9% acetic acid solution adjusted with a physiological saline was intraperitoneally administered 60 min later at 5 mL/kg. The number of writhing for 15 min from 5 min to 20 min after administration of a 0.9% acetic acid solution was counted and taken as the writhing number of the test compound. A mouse, to which a 0.5 (w/v) % tragacanth gum (TG) solution was orally administered at 5 ml/kg instead of the test compound, was used as a control. The suppression rate (%) was calculated by subtracting the relative value of each mouse from the relative value when the average value of the control group is 100%. As a Reference Example, the value obtained by oral administration of a positive control drug, indomethacin, instead of the test compound is shown. […] For testing the significant difference, Dunnett's t-test was used, and statistic significance as shown by P<0.05 and P<0.01 relative to the TG control group is shown in the Table with * and **, respectively.

Structure (SMILES) | suppression rate (%)
CC(C)[C@H](CNC(=O)Cc1ccccn1)Nc1ccc(C(F)(F)F)cc1 [Compound A-8] | 33.7 ± 10.1* %

Same assay, conditions: 10 mg/kg oral, mice, writhing number 5 to 20 min after 0.9% acetic acid i.p.; mean ± standard error

Structure (SMILES) | suppression rate (%)
CC(C)[C@H](CNC(=O)Cc1ccccn1)Nc1ccc(C(F)(F)F)cc1 [Compound A-8] | 52.7 ± 7.5** %
COc1ccc2c(c1)c(CC(=O)O)c(C)n2C(=O)c1ccc(Cl)cc1 [Indomethacin, indomethacin, reference compound] | 64.1 ± 10.8** %

Same assay, conditions: 30 mg/kg oral, mice, writhing number 5 to 20 min after 0.9% acetic acid i.p.; mean ± standard error

Structure (SMILES) | suppression rate (%)
CC(C)[C@H](CNC(=O)Cc1ccccn1)Nc1ccc(C(F)(F)F)cc1 [Compound A-8] | 63.5 ± 6.6** %

What follows are compounds tested against T1, human activated tissue kallikrein (Homo sapiens, UniProt P06870) (assay: Measurement of tissue kallikrein inhibitory activity). Settings: activated tissue kallikrein activity (initial rate) inhibited by 50%; substrate D-valyl-L-leucyl-L-arginyl-p-nitroanilide; 37° C.
T1 construct: 6xHis (C); made in house; host or cells: baculovirus / Sf21 insect cells
T1 sequence (P06870 25-262): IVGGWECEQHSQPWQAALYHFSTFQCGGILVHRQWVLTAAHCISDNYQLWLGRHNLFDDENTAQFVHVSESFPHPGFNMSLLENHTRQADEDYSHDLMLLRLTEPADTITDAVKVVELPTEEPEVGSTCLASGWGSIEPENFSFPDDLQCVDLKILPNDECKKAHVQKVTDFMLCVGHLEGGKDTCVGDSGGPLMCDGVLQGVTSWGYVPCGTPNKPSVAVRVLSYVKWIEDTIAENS
Format: biochemical
Experimental: Measurement of tissue kallikrein inhibitory activity
Expression and purification of human activated tissue kallikrein was performed according to the method of Angermann (A. Angermann et al., Eur. J. Biochem., 206, 225-233 (1992)). That is, a gene was prepared by adding 6 residues of histidine to the C-terminal side of human pancreas kallikrein gene (D. Fukuchima et al, Biochemistry, 24, 8037-8043 (1985)), and tissue prokallikrein was expressed by a system using a baculovirus-insect cell (Sf21). Purified human tissue kallikrein was obtained from the culture supernatant by purification using a nickel chelate column (Ni-NTA, QIAGEN K. K.), digestion with TPCK trypsin and further nickel chelate column. To a solution (100 μL) of the human activated tissue kallikrein adjusted to 0.0625 μg/mL with an assay buffer (100 mM tris-hydrochloride buffer (pH 8.4) containing 0.2M NaCl, 0.02% Tween 20, and 0.1% PEG 6000) was added an assay buffer (containing 2% DMSO) solution (50 μL) of the test compound adjusted to the objective concentration, and the mixture was incubated at 37° C. for 10 minutes (min=minutes). Then, a 4 mM solution (50 μL) of D-valyl-L-leucyl-L-arginyl-p-nitroanilide hydrochloride (BACHEM AG) adjusted with the assay buffer was added, the absorbance was measured and the reaction rate was determined. As a control, a DMSO solution (50 μL) was added instead of the solution of the test compound. Absorbance was measured at a wavelength of 405 nm at 60 second intervals for 90 min using a Benchmark Plus Microplate Reader (BIO RAD). The negative logarithm value (abbreviated as pIC50) of the test compound concentration when the activated tissue kallikrein activity (initial rate) was inhibited by 50% without addition of the test compound was used as an index of the activated tissue kallikrein inhibitory activity.

Structure (SMILES) | IC50
CC(C)[C@H](CNC(=O)Cc1ccccc1)Nc1ccc(C(F)(F)F)cc1 [Compound A-1, N-((2R)-3-methyl-2-{[4-(trifluoromethyl)phenyl]amino}butyl)-2-phenylacetamide trifluoroacetate] | 21.9 nM
CC(C)[C@H](CNC(=O)CCN)Nc1ccc(C(F)(F)F)cc1 [Compound A-3] | 25.7 nM
CC(C)[C@H](CNC(=O)Cc1c[nH]c2ccccc12)Nc1ccc(C(F)(F)F)cc1 [Compound A-4] | 29.5 nM
CC(C)[C@H](CNC(=O)CCc1c[nH]c2ccccc12)Nc1ccc(C(F)(F)F)cc1 [Compound A-5] | 50.1 nM
CC(C(=O)NC[C@H](Nc1ccc(C(F)(F)F)cc1)C(C)C)c1ccc(-c2ccccc2)c(F)c1 (stereo partly drawn) [Compound A-6] | 57.5 nM
CC(C)[C@H](CNC(=O)Cc1cccnc1)Nc1ccc(C(F)(F)F)cc1 [Compound A-7] | 85.1 nM
CC(C)[C@H](CNC(=O)Cc1ccccn1)Nc1ccc(C(F)(F)F)cc1 [Compound A-8] | 91.2 nM
CC(C)[C@H](CNC(=O)[C@H](N)c1ccccc1)Nc1ccc(C(F)(F)F)cc1 [Compound A-9] | 102 nM
CC(C)[C@H](CNC(=O)c1cccc(N(C)C)c1)Nc1ccc(C(F)(F)F)cc1 [Compound A-10] | 145 nM
CC(C)[C@H](CNC(=O)[C@@H](O)c1ccccc1)Nc1ccc(C(F)(F)F)cc1 [Compound A-11] | 158 nM
CC(C)[C@H](CNC(=O)C(=O)c1c[nH]c2ccccc12)Nc1ccc(C(F)(F)F)cc1 [Compound A-12] | 162 nM
CC(C)[C@H](CNC(=O)/C=C/c1ccncc1)Nc1ccc(C(F)(F)F)cc1 [Compound A-13] | 178 nM
CC(C)[C@H](CNC(=O)C1CCN(c2ccncc2)CC1)Nc1ccc(C(F)(F)F)cc1 [Compound A-14] | 182 nM
CC(C)[C@H](CNC(=O)[C@@H](N)C(C)C)Nc1ccc(C(F)(F)F)cc1 [Compound A-15] | 182 nM
CC(C)[C@H](CNC(=O)C1(c2ccccc2)CC1)Nc1ccc(C(F)(F)F)cc1 [Compound A-16] | 263 nM
CC(C)[C@H](CNC(=O)[C@@H](C)N)Nc1ccc(C(F)(F)F)cc1 [Compound A-17] | 295 nM
CC(C)[C@H](CNC(=O)[C@@H](N)CO)Nc1ccc(C(F)(F)F)cc1 [Compound A-18] | 309 nM
O=C(Cc1ccccc1)NC[C@H]1CCCN1c1ccc(C(F)(F)F)cc1 [Compound A-39] | 41.7 nM
O=C(Cc1ccccc1)NC[C@@H]1CCCN1c1ccc(C(F)(F)F)cc1 [Compound A-40] | 245 nM
O=C(Cc1c[nH]c2ccccc12)NC[C@H]1CCCN1c1ccc(C(F)(F)F)cc1 [Compound A-41] | 209 nM

Structure (SMILES) | IC50
CC(C)[C@H](CCNC(=O)c1ccccc1)Nc1ccc(C(F)(F)F)cc1 [Compound A-47, N-((3S))-4-methyl-3-{[4-(trifluoromethyl)phenyl]amino}pentyl)benzamide trifluoroacetate] | 209 nM
CC(C)[C@H](CCNC(=O)C1CCN(c2ccncc2)CC1)Nc1ccc(C(F)(F)F)cc1 [Compound A-48] | 46.8 nM
CC(C)[C@H](CCNC(=O)c1ccc2ncccc2c1)Nc1ccc(C(F)(F)F)cc1 [Compound A-49] | 46.8 nM
CC(C)[C@H](CCNC(=O)Cc1cccs1)Nc1ccc(C(F)(F)F)cc1 [Compound A-50] | 107 nM
CC(C)[C@H](CCNC(=O)Cc1c[nH]c2ccccc12)Nc1ccc(C(F)(F)F)cc1 [Compound A-51] | 129 nM
CC(C)[C@H](CCNC(=O)C1CCN(C(C)C)CC1)Nc1ccc(C(F)(F)F)cc1 [Compound A-52] | 151 nM
CC(C)[C@H](CNC(=O)Cc1ccccc1)Nc1ccc(C(F)(F)F)cc1CO [Compound A-55, N-((2R)-2-{[2-(hydroxymethyl)-4-(trifluoromethyl)phenyl]amino}-3-methylbutyl)-2-phenylacetamide] | 20 nM
CC(C)[C@H](CNC(=O)Cc1ccccc1)Nc1ccc(C(F)(F)F)cc1N [Compound A-56, N-((2R)-2-{[2-amino-4-(trifluoromethyl)phenyl]amino}-3-methylbutyl)-2-phenylacetamide trifluoroacetate] | 50.1 nM
CC(C)[C@H](CNC(=O)[C@@H](N)Cc1c[nH]c2ccccc12)Nc1ccc(C(F)(F)F)cc1N [Compound A-57] | 36.3 nM
CC(C)[C@H](CNC(=O)Cc1c[nH]c2ccccc12)Nc1ccc(C(F)(F)F)cc1N [Compound A-58] | 49 nM
CC(C)[C@H](CNC(=O)Cc1ccccn1)Nc1ccc(C(F)(F)F)cc1N [Compound A-59] | 83.2 nM
CC(C)[C@H](CNC(=O)[C@H](N)Cc1c[nH]c2ccccc12)Nc1ccc(C(F)(F)F)cc1N [Compound A-60] | 135 nM
O=C(N[C@H]1CCN(c2ccc(C(F)(F)F)cc2)C1)C1CCN(c2ccncc2)CC1 [Compound B-2] | 204 nM
CC(C)[C@H](CC(=O)NCc1ccccc1)Nc1ccc(C(F)(F)F)cc1 [Compound C-40, (3S)-N-benzyl-4-methyl-3-{[4-(trifluoromethyl)phenyl]amino}pentanamide] | 64.6 nM
CC(C)[C@H](CC(=O)NCc1ccccn1)Nc1ccc(C(F)(F)F)cc1 [Compound C-41] | 302 nM
CC(C)[C@H](CC(=O)NCCc1ccccc1)Nc1ccc(C(F)(F)F)cc1 [Compound C-42] | 129 nM
CC(C)[C@H](CC(=O)NCCc1ccccn1)Nc1ccc(C(F)(F)F)cc1 [Compound C-43] | 91.2 nM
CCNc1ccc(C(F)(F)F)cc1CO [Compound E-2] | 112 nM
CCCN1CCC(O)c2cc(C(F)(F)F)ccc21 (stereo not drawn) [Compound E-3, 1-propyl-6-(trifluoromethyl)-1,2,3,4-tetrahydroquinolin-4-ol] | 245 nM
CCCCN1CCC(O)c2cc(C(F)(F)F)ccc21 (stereo not drawn) [Compound E-4] | 257 nM

From patent US7879863B2, “Aniline derivatives” (Ajinomoto Co., Inc., priority 2004, dated 2011)
